Results published in ChEMBL document CHEMBL3885861, “Open TG-GATES”.

Organism: Rattus norvegicus
Test: Open TG-GATES - Regimen: Single
Type: toxicity, organism-based, Sprague-Dawley
Design: regimen Single, gender Male, age 6 weeks
Conditions: in vivo, po, 30 mg/kg, route gavage, dose level Middle; for APTT / Bas / Eos / Fbg / Hb / Ht / Lym / MCH / MCHC / MCV / Mono / Neu / PT / Plat / RBC / Ret / WBC: tissue Blood; for KIDNEY_L / KIDNEY_R / KIDNEY_TOTAL: tissue Kidney; for LIVER: tissue Liver; for A/G / ALP / ALT / AST / BUN / CRE / Ca / Cl / DBIL / GLC / IP / K / LDH / Na / PL / RALB / TBIL / TC / TG / TP / gamma-GTP: tissue Plasma

Compound: CCCc1cc(=O)[nH]c(=S)[nH]1 [PROPYLTHIOURACIL]
- TERMINAL_BW (3 h): 179.8 g
- APTT (3 h): 16 s
- Bas (3 h): 0%
- Eos (3 h): 1%
- Fbg (3 h): 211.4 mg/dL
- Hb (3 h): 13.2 g/dL
- Ht (3 h): 40%
- Lym (3 h): 80.2%
- MCH (3 h): 22.2 pg
- MCHC (3 h): 33%
- MCV (3 h): 67.2 fL
- Mono (3 h): 5.6%
- Neu (3 h): 13.6%
- PT (3 h): 12.8 s
- Plat (3 h): 100.4 x10_4/uL
- RBC (3 h): 595.4 x10_4/ul
- Ret (3 h): 10.1%
- WBC (3 h): 101.6 x10_2/uL
- KIDNEY_L (3 h): 0.8 g
- KIDNEY_R (3 h): 0.8 g
- KIDNEY_TOTAL (3 h): 1.7 g
- LIVER (3 h): 8.4 g
- A/G (3 h): 2
- ALP (3 h): 1017.6 IU/L
- ALT (3 h): 32.6 IU/L
- AST (3 h): 65.4 IU/L
- BUN (3 h): 12 mg/dL
- CRE (3 h): 0.4 mg/dL
- Ca (3 h): 11.2 mg/dL
- Cl (3 h): 105.2 meq/L
- DBIL (3 h): 0.042 mg/dL
- GLC (3 h): 193.6 mg/dL
- IP (3 h): 10.8 mg/dL
- K (3 h): 4.4 meq/L
- LDH (3 h): 86.6 IU/L
- Na (3 h): 138.2 meq/L
- PL (3 h): 135 mg/dL
- RALB (3 h): 3.6 g/dL
- TBIL (3 h): 0.3 mg/dL
- TC (3 h): 77.2 mg/dL
- TG (3 h): 30.6 mg/dL
- TP (3 h): 5.5 g/dL
- gamma-GTP (3 h): 1.2 IU/L
- TERMINAL_BW (6 h): 177.6 g
- APTT (6 h): 16.2 s
- Bas (6 h): 0%
- Eos (6 h): 1%
- Fbg (6 h): 208.8 mg/dL
- Hb (6 h): 13.2 g/dL
- Ht (6 h): 39.3%
- Lym (6 h): 77.2%
- MCH (6 h): 22.2 pg
- MCHC (6 h): 33.5%
- MCV (6 h): 66.3 fL
- Mono (6 h): 6.8%
- Neu (6 h): 15.2%
- PT (6 h): 12.7 s
- Plat (6 h): 107.3 x10_4/uL
- RBC (6 h): 593.4 x10_4/ul
- Ret (6 h): 10.5%
- WBC (6 h): 83.3 x10_2/uL
- KIDNEY_L (6 h): 0.8 g
- KIDNEY_R (6 h): 0.9 g
- KIDNEY_TOTAL (6 h): 1.7 g
- LIVER (6 h): 8.1 g
- A/G (6 h): 2
- ALP (6 h): 892.6 IU/L
- ALT (6 h): 31.8 IU/L
- AST (6 h): 63.8 IU/L
- BUN (6 h): 12.8 mg/dL
- CRE (6 h): 0.5 mg/dL
- Ca (6 h): 11.2 mg/dL
- Cl (6 h): 105 meq/L
- DBIL (6 h): 0.062 mg/dL
- GLC (6 h): 182 mg/dL
- IP (6 h): 10.8 mg/dL
- K (6 h): 4.9 meq/L
- LDH (6 h): 89.6 IU/L
- Na (6 h): 138.4 meq/L
- PL (6 h): 127.4 mg/dL
- RALB (6 h): 3.7 g/dL
- TBIL (6 h): 0.3 mg/dL
- TC (6 h): 70.4 mg/dL
- TG (6 h): 36.4 mg/dL
- TP (6 h): 5.5 g/dL
- gamma-GTP (6 h): 1.8 IU/L
- TERMINAL_BW (9 h): 178.7 g
- APTT (9 h): 15.7 s
- Bas (9 h): 0%
- Eos (9 h): 1.6%
- Fbg (9 h): 216 mg/dL
- Hb (9 h): 13.3 g/dL
- Ht (9 h): 40%
- Lym (9 h): 73.4%
- MCH (9 h): 22.1 pg
- MCHC (9 h): 33.2%
- MCV (9 h): 66.6 fL
- Mono (9 h): 8.2%
- Neu (9 h): 17%
- PT (9 h): 12.7 s
- Plat (9 h): 102.7 x10_4/uL
- RBC (9 h): 601.2 x10_4/ul
- Ret (9 h): 9.8%
- WBC (9 h): 64.5 x10_2/uL
- KIDNEY_L (9 h): 0.9 g
- KIDNEY_R (9 h): 0.9 g
- KIDNEY_TOTAL (9 h): 1.7 g
- LIVER (9 h): 7.5 g
- A/G (9 h): 1.9
- ALP (9 h): 878.2 IU/L
- ALT (9 h): 30.4 IU/L
- AST (9 h): 61.6 IU/L
- BUN (9 h): 12.2 mg/dL
- CRE (9 h): 0.5 mg/dL
- Ca (9 h): 10.5 mg/dL
- Cl (9 h): 106.4 meq/L
- DBIL (9 h): 0 mg/dL
- GLC (9 h): 194.2 mg/dL
- IP (9 h): 10.6 mg/dL
- K (9 h): 4.7 meq/L
- LDH (9 h): 92.4 IU/L
- Na (9 h): 138.8 meq/L
- PL (9 h): 131 mg/dL
- RALB (9 h): 3.6 g/dL
- TBIL (9 h): 0.5 mg/dL
- TC (9 h): 77.6 mg/dL
- TG (9 h): 33.8 mg/dL
- TP (9 h): 5.5 g/dL
- gamma-GTP (9 h): 1 IU/L
- TERMINAL_BW (24 h): 189 g
- APTT (24 h): 16 s
- Bas (24 h): 0%
- Eos (24 h): 1%
- Fbg (24 h): 206.6 mg/dL
- Hb (24 h): 13.6 g/dL
- Ht (24 h): 40.7%
- Lym (24 h): 78%
- MCH (24 h): 21.9 pg
- MCHC (24 h): 33.5%
- MCV (24 h): 65.2 fL
- Mono (24 h): 9%
- Neu (24 h): 12.4%
- PT (24 h): 12.3 s
- Plat (24 h): 101.4 x10_4/uL
- RBC (24 h): 623.4 x10_4/ul
- Ret (24 h): 9.1%
- WBC (24 h): 101.7 x10_2/uL
- KIDNEY_L (24 h): 0.9 g
- KIDNEY_R (24 h): 0.9 g
- KIDNEY_TOTAL (24 h): 1.7 g
- LIVER (24 h): 9.5 g
- A/G (24 h): 2
- ALP (24 h): 911.4 IU/L
- ALT (24 h): 40.8 IU/L
- AST (24 h): 65 IU/L
- BUN (24 h): 16.8 mg/dL
- CRE (24 h): 0.5 mg/dL
- Ca (24 h): 11 mg/dL
- Cl (24 h): 106.8 meq/L
- DBIL (24 h): 0.018 mg/dL
- GLC (24 h): 185.4 mg/dL
- IP (24 h): 7.1 mg/dL
- K (24 h): 5 meq/L
- LDH (24 h): 90.6 IU/L
- Na (24 h): 139.8 meq/L
- PL (24 h): 157.4 mg/dL
- RALB (24 h): 3.8 g/dL
- TBIL (24 h): 0.3 mg/dL
- TC (24 h): 85.2 mg/dL
- TG (24 h): 112 mg/dL
- TP (24 h): 5.7 g/dL
- gamma-GTP (24 h): 1.2 IU/L
